The test system of test [1] is Brown Rust (Puccinia recondita) on wheat. Put plainly: Greenhouse crop test in combination with commercial fungicide. As to conditions: Imtrex 0.35 L/ha; test compound at 20 ppm. It counts as in vivo. Here is the method: (§1) Method 3: Greenhouse Crop Tests
(§2) In this method, exemplary compounds were evaluated for their ability to control Zymoseptoria tritici on wheat, Botrytis cinerea on tomatoes, Asian Soya Rust (Phakopsora pachyrhizi) on soybean, and Brown Rust (Puccinia recondita) on wheat, in a controlled greenhouse environment in combination with one of four fungicides, Amistar, Imtrex, Proline or Balaya. In these studies, soybean cultivar Siverka, tomato (Money maker) and wheat plants (JB Diego) were used. Seeds were sown in 9 cm diameter pots to a depth of 1 to 2 cm using Petersfield potting compost (75% medium grade peat, 12% screened sterilized loam, 3% medium grade vermiculite, 10% grit (5 mm screened, lime free), 1.5 kg PG mix per m3, lime to pH5.5-6.0 and wetting agent (Vitax Ultrawet 200 ml per m3) and germinated/grown at 23° C. under a 16 h day/8 h night light regime. Plants were treated two to three weeks after sowing when they were at the BBCH 11 growth stage (first pair of true leaves (unifoliate) unfolded. A track sprayer was used to treat the plants with the mixture of commercial fungicide and test compound using a water volume of 200 L/ha. Plants were inoculated with the appropriate fungi (pathogen) 24 hours after treatment. Fungal pathogens used were Botrytis cinerea (Grey mold on tomato plants), Zymoseptoria tritici (Septoria leaf blotch on wheat plants), Puccinia triticina (Brown rust on wheat plants) and Phakopsora pachyrhyzi (Asian soy rust on soybean plants). Four replicates were used for each combination of fungicide, pathogen and test compound. Each plant was evaluated once the disease symptoms were fully expressed between seven to twenty days (depending on the pathogen) for % control of the disease. Appropriate controls were used for all experiments, including an ‘inoculation check’ wherein plants were inoculated with their specific pathogen to assess disease levels. Also, each commercial fungicide was tested on its own as a part of each treatment, this being benchmark against which the experimental compounds were evaluated. […] That is, the present compounds, although not fungicidal by themselves, enhance the activity of fungicides.
(§3) In these studies the fungicide was applied at the following rates

The subject of test [2] is Botrytis cinerea on tomatoes. Described as above. It counts as in vivo. Particulars: test compound at 20 ppm. As for the experimental part:
as §1, §2, §3

The test system of test [3] is Asian Soya Rust (Phakopsora pachyrhizi) on soybean. The description is as above. The class given is in vivo. As to conditions: test compound at 20 ppm. As for the experimental part:
as §1, §2, §3

The subject of test [4] is Zymoseptoria tritici on wheat. The test is described as above. The class given is in vivo. Particulars: test compound at 20 ppm. As for the experimental part:
as §1, §2, §3

Test [5] concerns Zymoseptoria tritici with a reduced susceptibility to strobilurin fungicides. Put plainly: In vitro assessment of combination activity with fungicides on agar.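 Further: scored as inactive or active or highly active.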 It counts as cell-based. As to conditions: fungicide at a rate just below that giving any control; visual assessment of % control. As for the experimental part: (§4) Method 2: In Vitro Assessment of Combination Activity
(§5) Selected compounds were assessed in combination with fungicides against a range of commercially important plant pathogenic fungi.
(§6) The test was conducted as follows. A fungicide was applied to a fungal plant pathogen at a rate slightly below that at which it gave any control, in combination with a suitable dose of the test compound. The test compound was recorded as active if control of the pathogen was observed.
(§7) In more detail, the test was conducted as follows. For each combination of fungicide, pathogen and test compound, the following wells were used. Well 1 contained a fungal pathogen growing on agar, and a fungicide at a rate just below that at which it gave any control of the pathogen. Well 2 was the same as Well 1, except that the test compound was also added at Rate 1. Well 3 was the same as Well 2, except that the test compound was added at Rate 2, where Rate 2 was higher than Rate 1. Finally, as a benchmark, Well 4 was the same as Well 1, except that it contained the fungicide at a higher rate, at which it gave partial control of the pathogen. Each of the Wells 1 to 4 were run in duplicate, giving a total of 8 wells for each combination of fungicide, pathogen and test compound. For each well, after a suitable period of incubation, a visual assessment of the % control of the pathogen by the fungicide was made.
(§8) The following fungicides were used in this assay: azoxystrobin, fluxapyroxad, and desthio prothioconazole. The following fungal pathogens were used in this assay. First, a strain of Zymoseptoria tritici with a reduced susceptibility to strobilurin fungicides; second a strain of Zymoseptoria tritici with a reduced susceptibility to SDHI fungicides (i.e., those that inhibit succinate dehydrogenase); and third, Microdochium nivale.

The next test concerns Microdochium nivale. Described as above. The class given is cell-based. Particulars: fungicide at a rate just below that giving any control; visual assessment of % control. Here is the method:
as §4, §5, §6, §7, §8

For test [6], the system named is Zymoseptoria tritici with a reduced susceptibility to SDHI fungicides. The description is as above. It counts as cell-based. Particulars: fungicide at a rate just below that giving any control; visual assessment of % control. As for the experimental part: as §4, §5, §6, §7, §8;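 further: scored as inactive or active or highly active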
In another test the test system is apyrase. As to the kind of experiment: In vitro apyrase assay (screen for apyrase inhibitors, phosphate release read at 630 nm). It counts as biochemical. As to conditions: inhibitor conc at 1 mM; 1 hr at room temperature; rounded average of two assay results. As for the experimental part: Method 1: In Vitro Apyrase Assay: Apyrase inhibitors useful as enhancers of pesticidal activity are assessed using an in vitro assay. The method of Windsor, Bio Techniques 33:1024-1030 (November 2002) was used as follows: Screen for Apyrase Inhibitors - 96 well plates were used for the assay: (Greiner bio-one: REF-655901-96 well, PS, F-bottom, Clear, Non-binding) Buffers: • Reaction Buffer: 60 mM Hepes; 3 mM MgCl2, 3 mM CaCl2 and 3 mM ATP (pH 6.5) • Development Buffer A: 2% aqueous ammonium molybdate • Development Buffer B: 11% ascorbic acid in 37.5% TCA in water • Stop buffer C: 2% trisodium citrate in 2% acetic acid solution in water • Add 100 μl of reaction buffer to each well. • Add […] (control) or inhibitor/compound or compounds such as […] or orthovanadate to each well. […] A blank cell indicates either <10% observed inhibition or a large difference between repetitions. In certain examples, the lack of observed inhibition is due to a lack of solubility of the compound under assay conditions, rather than a lack of apyrase inhibitory activity. Roux compound 15 inhibited apyrase in this assay at about 60%.

Setting [7] is: Balaya 0.0015 L/ha, compared to Balaya alone or with Roux Compound 15 at 30 ppm.

The structures appear in SMILES notation.
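Wherever activity in combination with fluxapyroxad is given: scored as inactive or active or highly active.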

For `C/C(=N\NC(=O)c1cccc(NS(C)(=O)=O)c1)c1ccc2ccccc2c1` [I-214, (E)-N-(3-(2-(1-(naphthalen-2-yl)ethylidene)hydrazine-1-carobnyl)phenyl)methanesulfonamide], the “activity of Imtrex against Brown Rust with addition of test compound” value in test [1] is on record as “substantially enhanced”. In addition, the “control of Botrytis by Balaya in combination with test compound” value in test [2] (setting [7]) is reported as “notably superior control”. Moreover, the “control of Botrytis by Imtrex in combination with test compound” value in test [2] (Imtrex 0.005 L/ha, compared to Imtrex alone or with Roux Compound 15 at 30 ppm) is given as “notably superior control”. Besides, the “activity of Amistar against Asian Soybean Rust with addition of test compound” value in test [3] (Amistar 0.02 L/ha) is on record as “substantially enhanced”. Moreover, the “activity of Balaya against Asian Soybean Rust with addition of test compound” value in test [3] (Balaya 0.03 L/ha) is “substantially enhanced”. For the same molecule, in test [3] (Proline 0.15 L/ha), the “activity of Proline against Asian Soybean Rust with addition of test compound” value was “substantially enhanced”. Besides, the “control of Zymoseptoria tritici by Amistar in combination with test compound” value in test [4] (Amistar 0.1 L/ha, compared to Amistar alone or with Roux Compound 15 at 30 ppm) is recorded as “notably superior control”. Besides, the “control of Zymoseptoria tritici by Balaya in combination with test compound” value in test [4] (setting [7]) is “notably superior control”. Also, the “control of Zymoseptoria tritici by Imtrex in combination with test compound” value in test [4] (Imtrex 0.02 L/ha, similar to Imtrex with Roux Compound 15 at 15 and 30 ppm) was “superior control to Imtrex or Proline alone”. In addition, the “control of Zymoseptoria tritici by Proline in combination with test compound” value in test [4] (Proline 0.0075 L/ha, compared to Proline alone and with Roux Compound 15) was “superior control to Imtrex or Proline alone”. Further, the “activity in combination with desthio prothioconazole” value in test [5] and in test [6] was “significant activity” throughout. Moreover, the “activity in combination with fluxapyroxad” value with Microdochium nivale is “significant activity”. In the test with apyrase, the “% Inhibition of Apyrase” value came out at 55%.
